For data set [1], the target named is T1, human recombinant Dipeptidyl peptidase IV enzyme (hrDPP IV) (Homo sapiens, UniProt P27487).
T1 construct: purchased R&D systems
Kind of data set: DPP IV assay, cleavage of H-Gly-Pro-AMC by human recombinant DPP-IV enzyme. In kind it is biochemical. The following applies: for inhibition at 0.3 µM: 300 nM compound concentration. In short, it runs like this: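 Human recombinant DPP-IV (3 ng) preincubated 60 min at room temperature with compound in 25 mM HEPES, 140 mM NaCl, 1% BSA, pH 7.8, in duplicate. Reaction with H-Gly-Pro-AMC (10 μL of 100 μM) for 20 min, stopped with acetic acid; AMC fluorescence 360/460 nm, IC50 from percent inhibition.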

In data set [2] the target is T2, human recombinant Dipeptidyl peptidase 9 enzyme (hrDPP 9) (Homo sapiens, UniProt Q86TI2).
T2 construct: purchased R&D systems
T2 sequence (Q86TI2 whole entry): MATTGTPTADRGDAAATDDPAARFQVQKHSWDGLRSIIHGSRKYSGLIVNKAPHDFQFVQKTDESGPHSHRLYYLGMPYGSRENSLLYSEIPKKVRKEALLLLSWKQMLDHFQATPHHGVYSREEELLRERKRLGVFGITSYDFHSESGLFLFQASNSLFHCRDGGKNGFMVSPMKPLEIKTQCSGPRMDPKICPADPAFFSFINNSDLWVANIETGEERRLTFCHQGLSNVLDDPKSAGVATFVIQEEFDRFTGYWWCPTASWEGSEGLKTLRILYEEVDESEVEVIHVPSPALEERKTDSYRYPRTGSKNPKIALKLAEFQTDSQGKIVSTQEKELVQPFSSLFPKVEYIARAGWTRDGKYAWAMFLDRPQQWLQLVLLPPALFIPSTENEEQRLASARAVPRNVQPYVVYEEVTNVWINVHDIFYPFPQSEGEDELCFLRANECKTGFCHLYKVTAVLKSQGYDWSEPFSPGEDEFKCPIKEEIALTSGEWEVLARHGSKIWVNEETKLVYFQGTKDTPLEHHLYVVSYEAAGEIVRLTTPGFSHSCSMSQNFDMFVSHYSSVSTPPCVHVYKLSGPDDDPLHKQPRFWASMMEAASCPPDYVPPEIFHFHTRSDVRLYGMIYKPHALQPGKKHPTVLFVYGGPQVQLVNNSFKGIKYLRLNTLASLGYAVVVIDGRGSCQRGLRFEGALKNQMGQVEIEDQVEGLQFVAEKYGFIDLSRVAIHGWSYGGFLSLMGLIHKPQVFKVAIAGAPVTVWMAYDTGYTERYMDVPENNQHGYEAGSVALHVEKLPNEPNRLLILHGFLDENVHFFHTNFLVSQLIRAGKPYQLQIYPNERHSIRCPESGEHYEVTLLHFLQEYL
Kind of data set: DPP 9 assay, cleavage of H-Gly-Pro-AMC. The format is biochemical. The following applies: selectivity for DPP-IV over DPP 9. The method, then:
DPP 9 activity was determined by the cleavage rate of 7-amino 4-methylcoumarin (AMC) from the substrate H-Gly-Pro-AMC. In brief, the assay was conducted by adding 10 ng of human recombinant Dipeptidyl peptidase 9 enzyme (hrDPP 9, available commercially from R&D systems) in 70 μL of the assay buffer (50 mM TRIS and 5 mM EDTA, pH 7.7) to a 96 well black flat bottom microtitre plate. Test compound was added as 10 μL additions to all wells except blank and total activity wells. After incubation of test substance with enzyme for 30 minutes at room temperature, 10 μL of 100 μM substrate H-Gly-Pro-AMC was added. After mixing, the plate was left for 30 minutes at room temperature. Then the reaction was terminated by addition of 10 μL of 25% Glacial Acetic Acid. Fluorescence was measured using Spectra Max Gemini XS (Molecular Devices, USA) at an excitation filter of 360 nm and emission filter of 460 nm.
Test compound dissolved in DMSO were diluted with assay buffer at different concentrations and tested in duplicates. Percentage inhibition was calculated with respect to total activity. IC50 value was calculated by using Prism Software.

The next data set deals with C57BL/6 mice. Kind of data set: Oral glucose tolerance test. The format is in vivo. The note with it: compound 10 mg/kg; for Antihyperglycemic activity, reduction in AUC (blood glucose), Time 6.00 hr: glucose 2 g/kg challenge 6.00 hr after compound administration, NA = No activity. The method, then: Effect of compound on glucose tolerance was examined in 7 week old C57BL/6 mice. Animals were kept for 18 h fasting and were challenged with glucose (2 g/kg) 30 min after compound (10 mg/kg) administration. Blood samples for glucose measurement were obtained by tail bleed pre dose and at serial time points after the glucose load (30, 60 and 120 minutes). Blood glucose estimation was done by using ContourTS active strips on glucometer (Bayer). To find the time response on glucose excursion, animals were challenged with glucose at different time point after compound administration (0.5, 2, 4, 6, 8, 12 or 24 hours) at blood glucose was measured at pre (0 minute) and post (30, 60 and 120 minutes) glucose load.
Results of blood glucose were expressed as area under curve (AUC) was calculated using Prism software.

Data set [3] addresses T3, human recombinant Dipeptidyl peptidase 8 enzyme (hrDPP 8) (Homo sapiens, UniProt Q6V1X1).
T3 construct: purchased R&D systems
The data set is described as follows: DPP 8 assay, cleavage of H-Ala-Pro-AFC. The format is biochemical. The note with it: selectivity for DPP-IV over DPP 8. The method, then:
DPP 8 activity was determined by the cleavage rate of 7-amino 4-fluoromethylcoumarin (AFC) from the substrate H-Ala-Pro-AFC. In brief, the assay was conducted by adding 30 ng of human recombinant Dipeptidyl peptidase 8 enzyme (hrDPP 8, available commercially from R&D systems) in 70 μL of the assay buffer (50 mM TRIS and 5 mM EDTA, pH 7.7) to a 96 well black flat bottom microtitre plate. Test compound was added as 10 μL additions to all wells except blank and total activity wells. After incubation of test substance with enzyme for 30 minutes at room temperature, 10 μL of 100 μM substrate H-Ala-Pro-AFC was added. After mixing, the plate was left for 30 minutes at room temperature. Then the reaction was terminated by addition of 10 μL of 25% Glacial Acetic Acid. Fluorescence was measured using Spectra Max Gemini XS (Molecular Devices, USA) at an excitation filter of 400 nm and emission filter of 505 nm.
Test compound dissolved in DMSO were diluted with assay buffer at different concentrations and tested in duplicates. Percentage inhibition was calculated with respect to total activity. IC50 value was calculated using Prism Software.

Consider 13 molecules from US8466145B2, “Dipeptidyl peptidase IV inhibitors” (Orchid Chemicals & Pharmaceuticals Limited, priority 2009, dated 2013).

For orientation: IC50 means the point on the concentration scale where inhibition reaches its midpoint. By melting point is commonly meant the temperature of the solid-liquid transition. As a reminder, the inhibition is the share of the control response that was lost under treatment.

Molecules are shown by their SMILES. A value given as a limit tells only on which side of the number the result lay.

T3 sequence (Q6V1X1 whole entry): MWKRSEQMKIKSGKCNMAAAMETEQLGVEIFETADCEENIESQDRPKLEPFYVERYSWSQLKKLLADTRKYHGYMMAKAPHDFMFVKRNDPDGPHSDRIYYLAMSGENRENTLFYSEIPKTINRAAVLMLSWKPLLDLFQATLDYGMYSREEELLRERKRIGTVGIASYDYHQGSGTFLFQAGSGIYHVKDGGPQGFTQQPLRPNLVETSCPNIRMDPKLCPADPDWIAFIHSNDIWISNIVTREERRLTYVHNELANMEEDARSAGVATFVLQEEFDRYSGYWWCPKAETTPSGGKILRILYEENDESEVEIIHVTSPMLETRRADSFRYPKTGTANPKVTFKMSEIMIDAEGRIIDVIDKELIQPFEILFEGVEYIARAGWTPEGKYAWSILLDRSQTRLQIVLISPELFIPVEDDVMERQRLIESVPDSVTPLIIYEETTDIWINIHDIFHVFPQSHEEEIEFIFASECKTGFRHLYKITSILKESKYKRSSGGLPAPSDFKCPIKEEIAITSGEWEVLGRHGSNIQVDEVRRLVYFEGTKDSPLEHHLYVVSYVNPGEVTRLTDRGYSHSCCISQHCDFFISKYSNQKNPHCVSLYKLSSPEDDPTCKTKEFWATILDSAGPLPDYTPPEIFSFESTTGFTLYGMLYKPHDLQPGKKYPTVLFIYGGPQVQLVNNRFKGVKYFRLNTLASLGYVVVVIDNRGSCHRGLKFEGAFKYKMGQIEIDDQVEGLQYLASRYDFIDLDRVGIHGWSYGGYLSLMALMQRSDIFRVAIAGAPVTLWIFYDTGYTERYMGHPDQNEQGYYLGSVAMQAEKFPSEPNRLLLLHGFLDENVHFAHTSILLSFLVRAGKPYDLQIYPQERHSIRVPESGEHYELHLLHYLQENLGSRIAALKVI
T1 sequence (P27487 whole entry): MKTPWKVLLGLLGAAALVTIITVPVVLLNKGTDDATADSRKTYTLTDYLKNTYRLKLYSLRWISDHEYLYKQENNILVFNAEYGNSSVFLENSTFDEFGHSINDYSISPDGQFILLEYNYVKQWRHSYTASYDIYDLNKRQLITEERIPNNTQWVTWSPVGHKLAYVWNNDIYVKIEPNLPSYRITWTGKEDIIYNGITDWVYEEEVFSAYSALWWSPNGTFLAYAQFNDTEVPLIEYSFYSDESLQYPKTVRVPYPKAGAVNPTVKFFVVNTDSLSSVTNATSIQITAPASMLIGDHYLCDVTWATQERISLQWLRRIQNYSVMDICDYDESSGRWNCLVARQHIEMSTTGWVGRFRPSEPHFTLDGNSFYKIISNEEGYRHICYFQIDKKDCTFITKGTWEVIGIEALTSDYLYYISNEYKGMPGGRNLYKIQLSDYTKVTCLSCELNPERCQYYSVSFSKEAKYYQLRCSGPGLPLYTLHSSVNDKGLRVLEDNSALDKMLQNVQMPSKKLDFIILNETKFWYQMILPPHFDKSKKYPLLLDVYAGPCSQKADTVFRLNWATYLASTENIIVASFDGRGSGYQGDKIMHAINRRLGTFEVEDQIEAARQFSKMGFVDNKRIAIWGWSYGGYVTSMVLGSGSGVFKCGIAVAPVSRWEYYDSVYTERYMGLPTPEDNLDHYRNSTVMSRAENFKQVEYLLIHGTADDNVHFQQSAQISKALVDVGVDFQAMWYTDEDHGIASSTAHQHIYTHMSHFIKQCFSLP

Consider `Cc1nc(C[C@@H]2CC[C@](C)(NCC(=O)N3C[C@@H](F)C[C@H]3C#N)C2(C)C)no1` [Example 55, (2S,4S)-4-Fluoro-1-(2-((1S,3S)-1,2,2-trimethyl-3-((5-methyl-1,2,4-oxadiazol-3-yl)methyl)cyclopentylamino)acetyl)pyrrolidine-2-carbonitrile], for which the melting point is 131 to 133 °C. In addition, the IC50 in data set [1] came to 4.39 nM. Besides, in data set [2], the “Selectivity (Fold) DPP 9” value is listed as greater than 9000 Fold. Moreover, in the data set with C57BL/6 mice (glucose 2 g/kg challenge 0.50 hr after compound administration), the “Antihyperglycemic activity, reduction in AUC (blood glucose), Time 0.50 hr” value is 48.30%. In the data set with C57BL/6 mice (glucose 2 g/kg challenge 4.00 hr after compound administration), the “Antihyperglycemic activity, reduction in AUC (blood glucose), Time 4.00 hr” value worked out at 45.69%. In addition, in the data set on C57BL/6 mice, the “Antihyperglycemic activity, reduction in AUC (blood glucose), Time 6.00 hr” value came out at 28.28%. For the same molecule, the “Antihyperglycemic activity, reduction in AUC (blood glucose), Time 8.00 hr” value with C57BL/6 mice (glucose 2 g/kg challenge 8.00 hr after compound administration) was determined as 18.63%.

For `CC1(C)[C@@H](NCC(=O)N2C[C@@H](F)C[C@H]2C#N)CC[C@@]1(C)c1nc(-c2cccnc2)no1` [Example 68, (2S,4S)-4-Fluoro-1-(2-((1S,3R)-2,2,3-trimethyl-3-(3-(pyridin-3-yl)-1,2,4-oxadiazol-5-yl)cyclopentylamino)acetyl)pyrrolidine-2-carbonitrile], the melting point was in the range of 126 to 130 °C. Moreover, the half-inhibitory concentration (IC50) in data set [1] is 40.2 nM. Further, the “Selectivity (Fold) DPP 8” value in data set [3] is recorded as greater than 250 Fold. Besides, the “Selectivity (Fold) DPP 9” value in data set [2] is given as greater than 15 Fold.

In turn, `CC1(C)[C@H](NCC(=O)N2C[C@@H](F)C[C@H]2C#N)CC[C@]1(C)c1nc(-c2cccnc2)no1` [Example 69, (2S,4S)-4-Fluoro-1-(2-((1R,3S)-2,2,3-trimethyl-3-(3-(pyridin-3-yl)-1,2,4-oxadiazol-5-yl)cyclopentylamino)acetyl)pyrrolidine-2-carbonitrile] registered a melting point of 70 to 75 °C. Also, the IC50 in data set [1] is 18.6 nM. Also, the “Selectivity (Fold) DPP 8” value in data set [3] was greater than 1800 Fold. In addition, the “Selectivity (Fold) DPP 9” value in data set [2] was greater than 150 Fold.

`CC1(C)[C@H](CN2CCCCS2(=O)=O)CC[C@]1(C)NCC(=O)N1C[C@@H](F)C[C@H]1C#N` [Example 30, (2S,4S)-1-(2-((1S,3R)-3-[(1,1-Dioxido-1,2-thiazinan-2-yl)methyl]-1,2,2-trimethylcyclopentylamino)acetyl)-4-fluoropyrrolidine-2-carbonitrile] showed a melting point of 186 to 190 °C. The concentration for half-maximal inhibition (IC50) in data set [1] came to 7.29 nM. For the same molecule, the “Selectivity (Fold) DPP 9” value in data set [2] is greater than 1250 Fold. The “Antihyperglycemic activity, reduction in AUC (blood glucose), Time 6.00 hr” value in the data set with C57BL/6 mice amounted to 30.90%.

As for `CC1(C)[C@H](NCC(=O)N2C[C@@H](F)C[C@H]2C#N)CC[C@]1(C)c1nc(-c2ccc(F)cc2)no1` [Example 64, (2S,4S)-4-Fluoro-1-(2-((1R,3S)-3-(3-(4-fluorophenyl)-1,2,4-oxadiazol-5-yl)-2,2,3-trimethylcyclopentylamino)acetyl)pyrrolidine-2-carbonitrile], in data set [1], the IC50 came out at 76.1 nM. For the same molecule, the “Selectivity (Fold) DPP 8” value in data set [3] is greater than 450 Fold. Also, in data set [2], the “Selectivity (Fold) DPP 9” value is given as greater than 250 Fold.

With `CC(C)c1nc(C[C@@H]2CC[C@](C)(NCC(=O)N3C[C@@H](F)C[C@H]3C#N)C2(C)C)no1` [Example 61, (2S,4S)-4-Fluoro-1-(2-((1S,3S)-3-((5-isopropyl-1,2,4-oxadiazol-3-yl)methyl)-1,2,2-trimethylcyclopentylamino)acetyl)pyrrolidine-2-carbonitrile methanesulfonate], in data set [1], the IC50 was found to be 13.8 nM and the inhibition at 0.3 µM amounted to 96.2%. Besides, the “Selectivity (Fold) DPP 9” value in data set [2] is greater than 7271 Fold.

`CC1(C)[C@@H](NCC(=O)N2C[C@@H](F)C[C@H]2C#N)CC[C@@]1(C)c1nc(-c2cnccn2)no1` [Example 72, (2S,4S)-4-Fluoro-1-(2-((1S,3R)-2,2,3-trimethyl-3-(3-(pyrazin-2-yl)-1,2,4-oxadiazol-5-yl)cyclopentylamino)acetyl)pyrrolidine-2-carbonitrile] displayed a melting point of 65 to 70 °C. In addition, the half-inhibitory concentration (IC50) in data set [1] came to 32.3 nM. For the same molecule, in data set [3], the “Selectivity (Fold) DPP 8” value is reported as greater than 1250 Fold. Also, in data set [2], the “Selectivity (Fold) DPP 9” value was greater than 35 Fold.

Consider `CC1(C)[C@H](Cc2noc(C(F)(F)F)n2)CC[C@]1(C)NCC(=O)N1C[C@@H](F)C[C@H]1C#N` [Example 56, (2S,4S)-4-Fluoro-1-(2-((1S,3S)-1,2,2-trimethyl-3-((5-(trifluoromethyl)-1,2,4-oxadiazol-3-yl)methyl)cyclopentylamino)acetyl)pyrrolidine-2-carbonitrile], for which the melting point fell in the range of 130 to 131 °C. In data set [1], the concentration for half-maximal inhibition (IC50) was found to be 19.6 nM and the inhibition at 0.3 µM was determined as 95.7%. The “Antihyperglycemic activity, reduction in AUC (blood glucose), Time 6.00 hr” value in the data set with C57BL/6 mice is listed as 7.07%.

In the case of `Cc1noc([C@@]2(C)CC[C@@H](NCC(=O)N3C[C@@H](F)C[C@H]3C#N)C2(C)C)n1` [Example 73, (2S,4S)-4-Fluoro-1-(2-((1R,3S)-2,2,3-trimethyl-3-(3-methyl-1,2,4-oxadiazol-5-yl)cyclopentylamino)acetyl)pyrrolidine-2-carbonitrile], the melting point fell in the range of 144 to 147 °C. Also, in data set [1], the IC50 is 41 nM. Moreover, the “Selectivity (Fold) DPP 8” value in data set [3] is listed as greater than 2300 Fold. In addition, the “Selectivity (Fold) DPP 9” value in data set [2] is recorded as greater than 150 Fold.

As to `CC1(C)[C@H](Cc2noc(-c3ccncc3)n2)CC[C@]1(C)NCC(=O)N1C[C@@H](F)C[C@H]1C#N` [Example 63, (2S,4S)-4-Fluoro-1-(2-((1S,3S)-1,2,2-trimethyl-3-((5-(pyridin-4-yl)-1,2,4-oxadiazol-3-yl)methyl)cyclopentylamino)acetyl)pyrrolidine-2-carbonitrile], the melting point lay in the range of 180 to 184 °C. Further, in data set [1], the IC50 is 19.2 nM and the inhibition at 0.3 µM was 92.6%. Also, the “Selectivity (Fold) DPP 9” value in data set [2] was greater than 1850 Fold.

As to `CC1(C)[C@@H](CN2CCCS2(=O)=O)CC[C@@]1(C)NCC(=O)N1C[C@@H](F)C[C@H]1C#N` [Example 28, (2S,4S)-1-(2-((1R,3S)-3-[(1,1-Dioxidoisothiazolidin-2-yl)methyl]-1,2,2-trimethylcyclopentylamino)acetyl)-4-fluoropyrrolidine-2-carbonitrile], the melting point lay within 126 to 128 °C. In data set [1], the IC50 was determined as 183 nM.

The molecule `CC1(C)[C@H](Cc2noc(-c3ccc(F)cc3)n2)CC[C@]1(C)NCC(=O)N1C[C@@H](F)C[C@H]1C#N` [Example 62, (2S,4S)-4-Fluoro-1-(2-((1S,3S)-3-((5-(4-fluorophenyl)-1,2,4-oxadiazol-3-yl)methyl)-1,2,2-trimethylcyclopentylamino)acetyl)pyrrolidine-2-carbonitrile] showed a melting point of 158 to 216 °C. For the same molecule, in data set [1], the inhibition at 0.3 µM turned out to be 79.8%.

`CC1(C)[C@@H](Cn2cncn2)CC[C@@]1(C)NCC(=O)N1C[C@@H](F)C[C@H]1C#N` [Example 1, (2S,4S)-1-(2-((1R,3S)-3-((1H-1,2,4-Triazol-1-yl)methyl)-1,2,2-trimethylcyclopentylamino)acetyl)-4-fluoropyrrolidine-2-carbonitrile] came in with a melting point of 186 to 188 °C. In addition, the IC50 in data set [1] came out at 222 ± 56.8 nM.
